Laboratory results reported in US20240425464A1, “Substituted Monohydrazides as Potent Antifungal Agents” (University of Kentucky Research Foundation, priority 2023, published 2024).
In brackets after ≈: the same amount, converted by molar mass. Where two headings read alike, the source gives them in different places.

Assays:
[1] = system: C. albicans ATCC 10231 (strain A); assay: MIC determination by in vitro antifungal assay (CLSI broth dilution); assay type: cell-based, Candida albicans; details: strain A = C. albicans ATCC 10231, no visible growth, 48 h at 35° C.
Protocol: (§1) 10 mg/mL stock solutions of compounds 1a-9j were prepared in dimethyl sulfoxide (DMSO) and were stored at −20° C. in the dark. The antifungal agent amphotericin B (AmB) was purchased from VWR (Radnor PA, USA). AmB was dissolved in DMSO at a final concentration of 5 mg/mL and was stored at −20° C., protected from light. Candida albicans American Type Culture Collection (ATCC) 10231 (strain A), C. albicans ATCC 64124 (B), and C. albicans ATCC MYA-2876 (C) were obtained from Utah State University. C. albicans ATCC 90819 (D), C. albicans ATCC MYA-2310 (E), C. albicans ATCC MYA-1237 (F), C. albicans ATCC MYA-1003 (G), Candida glabrata ATCC 2001 (H), Candida krusei ATCC 6258 (I), Candida parapsilosis ATCC 22019 (J), Cryptococcus neoformans ATCC MYA-895 (M), Aspergillus terreus ATCC MYA-3633 (N), and Aspergillus flavus ATCC MYA-3631 (0) were obtained from the American Type Culture Collection (ATCC; Manassas, VA, USA). Aspergillus nidulans ATCC 38163 (P) was obtained from University of Kentucky. Clinically derived Aspergillus fumigatus NRRL 163 (Q), A. fumigatus NRRL 5109 (R), and A. fumigatus NRRL 6113 (S) were obtained from Northern Regional Research Laboratory (NRRL). Candida auris 384 (K), C. auris 390 (L), and fungal strains 381-400 (including 10 C. auris (AR Bank #381-390), 3 Candida duobushaemulonii (AR Bank #391, AR Bank #392, and AR Bank #394), 2 Candida haemulonii (AR Bank #393 and AR Bank #395), 1 Kodameae ohmeri (AR Bank #396), 1 C. krusei (AR Bank #397), 1 Candida lusitaniae (AR Bank #398), and 2 Saccharomyces cerevisiae strains (AR Bank #399 and AR Bank #400)) were part of a larger fungal library from the AR Bank maintained by the Centers for Disease Control and Prevention (CDC; Atlanta, GA, USA). Filamentous fungi and yeasts were cultivated at 35° C. in RPMI 1640 medium (with L-glutamine, without sodium bicarbonate, Sigma-Aldrich, St. Louis, MO) buffered to a pH of 7.0 with 0.165 M morpholinepropanesulfonic acid (MOPS) buffer (Sigma-Aldrich). For cytotoxicity assays, HepG2 and the mouse macrophage cell line J774A.1 were obtained from University of Kentucky. The human embryonic kidney cell line, HEK-293, was bought from the ATCC. Mammalian cells were grown in Dulbecco's Modified Eagle's Medium (DMEM) (from VWR) with 10% fetal bovine serum (FBS) (from VWR) and 1% Pen/Strep (from ATCC). Cell lines were cultured at 37° C. with 5% CO2 and passaged by trypsinization with 0.05% trypsin: 0.53 mM EDTA (from Sigma-Aldrich).
(§2) The MIC values of compounds 1a-9j against yeast cells (strains A-P and 381-400) were determined in 96-well plates as described in the CLSI documents M27-A3 and M38-A2 with minor modifications.^2 A single colony of freshly prepared yeast cells was used to inoculate 5 mL of yeast extract peptone dextrose (YPD) broth prior to incubation overnight with shaking at 200 rpm at 35° C. From the actively growing yeast culture, 100 µL were then transferred to 900 μL of RPMI 1640 medium and re-adjusted to achieve OD600 of 0.12 (˜1×10^6 CFU/mL). The cell suspension was further diluted to achieve 1:100 in RPMI 1640 medium. 100 μL of cells were added to the wells of a 96-well microtiter plates that contained 100 µL of the compound solution to obtain concentrations of 0.06-31.3 μg/mL of compounds 1a-9j or AmB prior to incubation for 48 h at 35° C. […]

[2] = system: Candida glabrata ATCC 2001 (H); assay: MIC determination by in vitro antifungal assay; assay type: cell-based; details: ATCC 2001 in text
Protocol: as §1, §2

[3] = system: Candida krusei ATCC 6258 (I); assay: MIC determination by in vitro antifungal assay; assay type: cell-based
Protocol: as §1, §2

[4] = system: Candida parapsilosis ATCC 22019 (J); assay: MIC determination by in vitro antifungal assay; assay type: cell-based
Protocol: as §1, §2

[5] = system: Aspergillus flavus ATCC MYA-3631 (O); assay: MIC determination by in vitro antifungal assay; assay type: cell-based; details: strain O = A. flavus ATCC MYA-3631
How it was run: (§3)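 Twofold dilutions spanning 0.06–31.3 μg/mL were incubated with fungi for 48 h at 35° C in MOPS-buffered RPMI 1640 (pH 7.0), following modified CLSI M27-A3 and M38-A2 methods. Yeast cells were grown overnight in YPD, set to OD600 0.12 (~1×10^6 CFU/mL), then diluted 1:100.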

[6] = system: Aspergillus nidulans ATCC 38163 (P); assay: MIC determination by in vitro antifungal assay; assay type: cell-based
How it was run: as §3

[7] = system: Cryptococcus neoformans ATCC MYA-895 (M); assay: MIC determination by in vitro antifungal assay; assay type: cell-based
How it was run: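 Overnight YPD cultures of yeast were adjusted in RPMI 1640 to OD600 0.12 (˜1×10^6 CFU/mL) and diluted 1:100. The cells were added to serially double-diluted compound (0.06-31.3 μg/mL) in MOPS-buffered RPMI 1640 at pH 7.0. Plates were then incubated at 35° C for 48 h.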

[8] = strain H = C. glabrata ATCC 2004 (footnote)
[9] = strain J = C. parapsilosis ATCC 22019
[10] = strain P = A. nidulans ATCC 38163
[11] = strain M = C. neoformans ATCC MYA-895
[12] = Candida albicans, ATCC10231, 48 h, read-out: MIC
[13] = Nakaseomyces glabratus, ATCC 2001 / ATCC 2004, strain H = C. glabrata ATCC 2004 (footnote), read-out: MIC
[14] = Pichia kudriavzevii, ATCC6258, strain I = C. krusei ATCC 6258, read-out: MIC
[15] = Lodderomyces parapsilosis, ATCC22019, strain J = C. parapsilosis ATCC 22019, read-out: MIC
[16] = Aspergillus flavus, read-out: MIC
[17] = Aspergillus nidulans, ATCC38163, strain P = A. nidulans ATCC 38163, read-out: MIC
[18] = Cryptococcus neoformans, strain M = C. neoformans ATCC MYA-895, read-out: MIC

Row | SMILES | MIC [1] | MIC [2, 8] | MIC ([3]; strain I = C. krusei ATCC 6258) | MIC [4, 9] | MIC [5] | MIC [6, 10] | MIC [7, 11] | MIC [1, 12] | MIC [2, 13] | MIC [3, 14] | MIC [4, 15] | MIC [5, 16] | MIC [6, 17] | MIC [7, 18] | MIC ([7]; against strain M) | MIC ([3]; against strain I)
1 | C[C@@H]1[C@H](O)[C@@H](C)/C=C/C=C/C=C/C=C/C=C/C=C/C=C/[C@H](O[C@@H]2O[C@H](C)[C@@H](O)[C@H](N)[C@@H]2O)C[C@@H]2O[C@](O)(C[C@@H](O)C[C@@H](O)[C@H](O)CC[C@@H](O)C[C@@H](O)CC(=O)O[C@H]1C)C[C@H](O)[C@H]2C(=O)O [AmB, amphotericin B, reference compound] | 1.95 μg/mL^−1 | 0.98 μg/mL^−1 | 0.98 μg/mL^−1 | 0.98 μg/mL^−1 | 31.3 μg/mL^−1 | 15.6 μg/mL^−1 | 7.8 μg/mL^−1 | – | – | – | – | – | – | – | – | –
2 | O=C(NNc1cccc(F)c1)c1ccc(F)cc1F [Compound 1a] | 0.24 μg/mL^−1 | 7.8 μg/mL^−1 | 1.95 μg/mL^−1 | 3.9 μg/mL^−1 | >31.3 μg/mL^−1 | 3.9 μg/mL^−1 | 1.95 μg/mL^−1 | – | – | – | – | – | – | – | – | –
3 | O=C(NNc1cccc(Cl)c1)c1ccc(F)cc1F [Compound 1b] | – | – | – | – | – | – | – | 1.95 µg/mL (≈ 6.9 µM) | > 31.3 µg/mL | 0.98 µg/mL (≈ 3.47 µM) | 3.9 µg/mL (≈ 13.8 µM) | > 31.3 µg/mL | 3.9 µg/mL (≈ 13.8 µM) | 1.95 µg/mL (≈ 6.9 µM) | – | –
4 | COc1cccc(NNC(=O)c2ccc(F)cc2F)c1 [Compound 1c] | – | – | – | – | – | – | – | 0.98 µg/mL (≈ 3.52 µM) | 31.3 µg/mL (≈ 112 µM) | 0.98 µg/mL (≈ 3.52 µM) | 7.8 µg/mL (≈ 28 µM) | > 31.3 µg/mL | 3.9 µg/mL (≈ 14 µM) | 0.49 µg/mL (≈ 1.76 µM) | – | –
5 | O=C(NNc1ccc(F)cc1)c1ccc(F)cc1F [Compound 1d] | – | – | – | – | – | – | – | 0.49 µg/mL (≈ 1.84 µM) | 7.8 µg/mL (≈ 29.3 µM) | 1.95 µg/mL (≈ 7.32 µM) | 15.6 µg/mL (≈ 58.6 µM) | > 31.3 µg/mL | 3.9 µg/mL (≈ 14.6 µM) | 0.49 µg/mL (≈ 1.84 µM) | – | –
6 | O=C(NNc1ccc(Cl)cc1)c1ccc(F)cc1F [Compound 1e] | 1.95 μg/mL^−1 | 3.9 μg/mL^−1 | 15.6 μg/mL^−1 | 31.3 μg/mL^−1 | >31.3 μg/mL^−1 | 31.3 μg/mL^−1 | 1.95 μg/mL^−1 | – | – | – | – | – | – | – | – | –
7 | COc1ccc(NNC(=O)c2ccc(F)cc2F)cc1 [Compound 1f] | – | – | – | – | – | – | – | 0.98 µg/mL (≈ 3.52 µM) | 3.9 µg/mL (≈ 14 µM) | 0.98 µg/mL (≈ 3.52 µM) | 7.8 µg/mL (≈ 28 µM) | > 31.3 µg/mL | 1.95 µg/mL (≈ 7.01 µM) | 0.98 µg/mL (≈ 3.52 µM) | – | –
8 | O=C(NNc1ccc(F)cc1F)c1ccc(F)cc1F [Compound 1g] | – | – | – | – | – | – | – | 1.95 µg/mL (≈ 6.86 µM) | 1.95 µg/mL (≈ 6.86 µM) | 7.8 µg/mL (≈ 27.4 µM) | 7.8 µg/mL (≈ 27.4 µM) | > 31.3 µg/mL | 1.95 µg/mL (≈ 6.86 µM) | 0.49 µg/mL (≈ 1.72 µM) | – | –
9 | O=C(NNc1cc(F)ccc1F)c1ccc(F)cc1F [Compound 1h] | – | – | – | – | – | – | – | 3.9 µg/mL (≈ 13.7 µM) | > 31.3 µg/mL | 3.9 µg/mL (≈ 13.7 µM) | 31.3 µg/mL (≈ 110 µM) | 15.6 µg/mL (≈ 54.9 µM) | 3.9 µg/mL (≈ 13.7 µM) | 0.98 µg/mL (≈ 3.45 µM) | 0.98 j·tg mL^−1 | –
10 | O=C(NNc1cc(F)cc(F)c1)c1ccc(F)cc1F [Compound 1i] | – | – | – | – | – | – | – | 3.9 µg/mL (≈ 13.7 µM) | > 31.3 µg/mL | 1.95 µg/mL (≈ 6.86 µM) | 15.6 µg/mL (≈ 54.9 µM) | > 31.3 µg/mL | 7.8 µg/mL (≈ 27.4 µM) | 0.49 µg/mL (≈ 1.72 µM) | 0.49 j·tg mL^−1 | 1.95 j·tg mL^−1
